PubChem BioAssay AID272 (DTP/NCI, 2004)
“And” between values parts separate entries of the source, which are not always exact repeats. Equal values may be shown once. Inconclusive results are not listed.

Tested on: Lewis lung carcinoma i.m., BDF1 mice, T/C %
Test: NCI In Vivo Anticancer Drug Screen. Data for tumor model Lewis Lung Carcinoma (intramuscular) in B6D2F1 (BDF1) mice
Method in brief: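 Value is the ratio of a treated-group measurement (T) to the matching vehicle-control measurement (C), using either survival or tumour size in mice bearing transplanted tumours.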

[1] = endpoint: mean tumor weight (est.), dose: 3.12 mg/kg/injection, schedule: Q01DX011 (ip), vehicle: saline, higher = larger tumour
[2] = endpoint: mean tumor weight (est.), dose: 6.25 mg/kg/injection, schedule: Q01DX011 (ip), vehicle: saline, higher = larger tumour
[3] = endpoint: mean tumor weight (est.), dose: 12.5 mg/kg/injection, schedule: Q01DX011 (ip), vehicle: saline, higher = larger tumour
[4] = endpoint: mean tumor weight (est.), dose: 100.0 mg/kg/injection, schedule: Q01DX011 (ip), vehicle: saline, higher = larger tumour
[5] = endpoint: median survival time, dose: 3.12 mg/kg/injection, schedule: Q01DX011 (ip), vehicle: saline, higher = longer survival
[6] = endpoint: median survival time, dose: 6.25 mg/kg/injection, schedule: Q01DX011 (ip), vehicle: saline, higher = longer survival
[7] = endpoint: median survival time, dose: 12.5 mg/kg/injection, schedule: Q01DX011 (ip), vehicle: saline, higher = longer survival
[8] = endpoint: median survival time, dose: 25.0 mg/kg/injection, schedule: Q01DX011 (ip), vehicle: saline, higher = longer survival
[9] = endpoint: median survival time, dose: 100.0 mg/kg/injection, schedule: Q01DX011 (ip), vehicle: saline, higher = longer survival
[10] = endpoint: mean tumor weight (est.), dose: 1.0 mg/kg/injection, schedule: Q01DX011 (ip), vehicle: saline, higher = larger tumour
[11] = endpoint: mean tumor weight (est.), dose: 2.0 mg/kg/injection, schedule: Q01DX011 (ip), vehicle: saline, higher = larger tumour
[12] = endpoint: median survival time, dose: 1.0 mg/kg/injection, schedule: Q01DX011 (ip), vehicle: saline, higher = longer survival
[13] = endpoint: median survival time, dose: 2.0 mg/kg/injection, schedule: Q01DX011 (ip), vehicle: saline, higher = longer survival

CSc1ncnc2nc[nH]c12
T/C (endpoint: mean tumor weight (est.), dose: 1.56 mg/kg/injection, schedule: Q01DX011 (ip), vehicle: saline, higher = larger tumour): 79 % of control
T/C [1]: 79 % of control
T/C [2]: 85 % of control
T/C [3]: 78 % of control
T/C (endpoint: mean tumor weight (est.), dose: 25.0 mg/kg/injection, schedule: Q01DX011 (ip), vehicle: saline, higher = larger tumour): 80 % of control
T/C (endpoint: mean tumor weight (est.), dose: 50.0 mg/kg/injection, schedule: Q01DX011 (ip), vehicle: saline, higher = larger tumour): 89 % of control
T/C [4]: 62 % of control
T/C (endpoint: mean tumor weight, dose: 3.12 mg/kg/injection, schedule: Q01DX011 (ip), vehicle: other, higher = larger tumour): 96 % of control
T/C (endpoint: mean tumor weight, dose: 6.25 mg/kg/injection, schedule: Q01DX011 (ip), vehicle: other, higher = larger tumour): 79 % of control
T/C (endpoint: mean tumor weight, dose: 12.5 mg/kg/injection, schedule: Q01DX011 (ip), vehicle: other, higher = larger tumour): 73 % of control
T/C (endpoint: median survival time, dose: 1.56 mg/kg/injection, schedule: Q01DX011 (ip), vehicle: other, higher = longer survival): 104 % of control
T/C (endpoint: median survival time, dose: 1.56 mg/kg/injection, schedule: Q01DX011 (ip), vehicle: saline, higher = longer survival): 92 % of control
T/C [5]: 92 % of control
T/C [6]: 90 % of control
T/C (endpoint: median survival time, dose: 12.5 mg/kg/injection, schedule: Q01DX011 (ip), vehicle: other, higher = longer survival): 93 % of control and 100 % of control
T/C [7]: 88 % of control
T/C [8]: 92 % of control
T/C (endpoint: median survival time, dose: 50.0 mg/kg/injection, schedule: Q01DX011 (ip), vehicle: other, higher = longer survival): 109 % of control
T/C (endpoint: median survival time, dose: 50.0 mg/kg/injection, schedule: Q01DX011 (ip), vehicle: saline, higher = longer survival): 90 % of control
T/C [9]: 105 % of control

CN(N=O)C(N)=O
T/C (endpoint: median survival time, dose: 3.12 mg/kg/injection, schedule: Q01DX015 (ip), vehicle: saline, higher = longer survival): 98 % of control
T/C (endpoint: median survival time, dose: 6.25 mg/kg/injection, schedule: Q01DX015 (ip), vehicle: saline, higher = longer survival): 103 % of control
T/C (endpoint: median survival time, dose: 6.25 mg/kg/injection, schedule: Q07DX003 (ip), vehicle: saline, higher = longer survival): 94 % of control
T/C (endpoint: median survival time, dose: 12.5 mg/kg/injection, schedule: Q01DX015 (ip), vehicle: saline, higher = longer survival): 115 % of control
T/C (endpoint: median survival time, dose: 12.5 mg/kg/injection, schedule: Q07DX003 (ip), vehicle: saline, higher = longer survival): 93 % of control
T/C (endpoint: median survival time, dose: 25.0 mg/kg/injection, schedule: Q07DX003 (ip), vehicle: saline, higher = longer survival): 86 % of control

O=S(=O)(O)C(Nc1ccccc1)c1ccccc1 (configuration not stated)
T/C (endpoint: mean tumor weight, dose: 200.0 mg/kg/injection, schedule: Q01DX011 (ip), vehicle: water, higher = larger tumour): 79 % of control
T/C (endpoint: mean tumor weight, dose: 400.0 mg/kg/injection, schedule: Q01DX011 (ip), vehicle: water, higher = larger tumour): 58 % of control

Nc1ncn(C2OC(CO)C(O)C2O)c(=O)n1 (configuration not stated)
T/C (endpoint: mean tumor weight, dose: 0.19 mg/kg/injection, schedule: Q01DX011 (ip), vehicle: saline, higher = larger tumour): 105 % of control
T/C (endpoint: mean tumor weight, dose: 0.38 mg/kg/injection, schedule: Q01DX011 (ip), vehicle: saline, higher = larger tumour): 82 % of control
T/C (endpoint: median survival time, dose: 0.1 mg/kg/injection, schedule: Q01DX011 (ip), vehicle: saline, higher = longer survival): 93 % of control
T/C (endpoint: median survival time, dose: 0.19 mg/kg/injection, schedule: Q01DX011 (ip), vehicle: saline, higher = longer survival): 104 % of control
T/C (endpoint: median survival time, dose: 0.2 mg/kg/injection, schedule: Q01DX011 (ip), vehicle: saline, higher = longer survival): 106 % of control and 109 % of control
T/C (endpoint: median survival time, dose: 0.38 mg/kg/injection, schedule: Q01DX011 (ip), vehicle: saline, higher = longer survival): 90 % of control and 110 % of control
T/C (endpoint: median survival time, dose: 0.4 mg/kg/injection, schedule: Q01DX011 (ip), vehicle: saline, higher = longer survival): 105 % of control and 124 % of control
T/C (endpoint: median survival time, dose: 0.75 mg/kg/injection, schedule: Q01DX011 (ip), vehicle: saline, higher = longer survival): 112 % of control
T/C (endpoint: median survival time, dose: 0.8 mg/kg/injection, schedule: Q01DX011 (ip), vehicle: saline, higher = longer survival): 106 % of control
T/C (endpoint: median survival time, dose: 1.5 mg/kg/injection, schedule: Q01DX011 (ip), vehicle: saline, higher = longer survival): 108 % of control

Nc1nc2n[nH]nc2c(=O)[nH]1
T/C (endpoint: mean tumor weight, dose: 25.0 mg/kg/injection, schedule: Q01DX011 (ip), vehicle: other, higher = larger tumour): 81 % of control
T/C (endpoint: mean tumor weight, dose: 100.0 mg/kg/injection, schedule: Q01DX011 (ip), vehicle: other, higher = larger tumour): 64 % of control

Oc1ccc(I)c2cccnc12
T/C [4]: 109 % of control
T/C [9]: 95 % of control

COc1cc([C@@H]2c3cc4c(cc3[C@@H](OC3OC5CO[C@@H](c6cccs6)OC5C(O)C3O)[C@H]3COC(=O)[C@H]23)OCO4)cc(OC)c1O (some centres not stated)
T/C (endpoint: mean tumor weight (est.), dose: 0.25 mg/kg/injection, schedule: Q01DX011 (ip), vehicle: saline, higher = larger tumour): 98 % of control
T/C (endpoint: mean tumor weight (est.), dose: 0.5 mg/kg/injection, schedule: Q01DX011 (ip), vehicle: saline, higher = larger tumour): 74 % of control
T/C [10]: 68 % of control
T/C [11]: 45 % of control
T/C (endpoint: median survival time, dose: 0.25 mg/kg/injection, schedule: Q01DX011 (ip), vehicle: saline, higher = longer survival): 118 % of control
T/C (endpoint: median survival time, dose: 0.5 mg/kg/injection, schedule: Q01DX011 (ip), vehicle: saline, higher = longer survival): 104 % of control
T/C [12]: 106 % of control
T/C [13]: 114 % of control
T/C (endpoint: median survival time, dose: 2.0 mg/kg/injection, schedule: Q04DX003 (ip), vehicle: saline, higher = longer survival): 104 % of control
T/C (endpoint: median survival time, dose: 4.0 mg/kg/injection, schedule: Q04DX003 (ip), vehicle: saline, higher = longer survival): 105 % of control
T/C (endpoint: median survival time, dose: 8.0 mg/kg/injection, schedule: Q04DX003 (ip), vehicle: saline, higher = longer survival): 115 % of control
T/C (endpoint: median survival time, dose: 32.0 mg/kg/injection, schedule: Q04DX003 (ip), vehicle: saline, higher = longer survival): 37 % of control

CS(=O)(=O)OCCC(=O)N1CCN(C(=O)CCOS(C)(=O)=O)CC1
T/C (endpoint: mean tumor weight, dose: 12.5 mg/kg/injection, schedule: Q01DX011 (ip), vehicle: saline, higher = larger tumour): 79 % of control
T/C (endpoint: mean tumor weight, dose: 25.0 mg/kg/injection, schedule: Q01DX011 (ip), vehicle: saline, higher = larger tumour): 60 % of control
T/C (endpoint: mean tumor weight, dose: 50.0 mg/kg/injection, schedule: Q01DX011 (ip), vehicle: saline, higher = larger tumour): 61 % of control
T/C [7]: 104 % of control
T/C [8]: 97 % of control

Cc1cccc2cc3c(ccc4ccccc43)c[n+]12
T/C [10]: 91 % of control
T/C [11]: 87 % of control
T/C (endpoint: mean tumor weight (est.), dose: 4.0 mg/kg/injection, schedule: Q01DX011 (ip), vehicle: saline, higher = larger tumour): 83 % of control
T/C (endpoint: mean tumor weight (est.), dose: 8.0 mg/kg/injection, schedule: Q01DX011 (ip), vehicle: saline, higher = larger tumour): 46 % of control
T/C [12]: 98 % of control
T/C [13]: 101 % of control
T/C (endpoint: median survival time, dose: 4.0 mg/kg/injection, schedule: Q01DX011 (ip), vehicle: saline, higher = longer survival): 98 % of control
T/C (endpoint: median survival time, dose: 8.0 mg/kg/injection, schedule: Q01DX011 (ip), vehicle: saline, higher = longer survival): 121 % of control

Cc1c(C(=O)O)nc(/C=C/C(=O)O)[nH]c1=O
T/C (endpoint: median survival time, dose: 4.0 mg/kg/injection, schedule: Q01DX009 (ip), vehicle: water, higher = longer survival): 105 % of control
T/C (endpoint: median survival time, dose: 8.0 mg/kg/injection, schedule: Q01DX009 (ip), vehicle: water, higher = longer survival): 108 % of control
T/C (endpoint: median survival time, dose: 16.0 mg/kg/injection, schedule: Q01DX009 (ip), vehicle: water, higher = longer survival): 108 % of control

Cc1ccc2c(ccc(C)[n+]2C)c1
T/C (endpoint: mean tumor weight (est.), dose: 37.5 mg/kg/injection, schedule: Q01DX011 (ip), vehicle: saline, higher = larger tumour): 86 % of control
T/C (endpoint: mean tumor weight (est.), dose: 75.0 mg/kg/injection, schedule: Q01DX011 (ip), vehicle: saline, higher = larger tumour): 86 % of control

COC(=O)[CH](C[N+](=O)[O-])[Hg][Cl] (configuration not stated)
T/C [1]: 79 % of control
T/C [2]: 69 % of control
T/C [3]: 71 % of control
T/C [5]: 107 % of control
T/C [6]: 115 % of control
T/C [7]: 88 % of control

CNC(=S)N/N=C/CCC/C=N/NC(=S)NC
T/C (endpoint: mean tumor weight (est.), dose: 18.75 mg/kg/injection, schedule: Q01DX011 (ip), vehicle: saline with Tween-80, higher = larger tumour): 112 % of control
T/C (endpoint: mean tumor weight (est.), dose: 37.5 mg/kg/injection, schedule: Q01DX011 (ip), vehicle: saline with Tween-80, higher = larger tumour): 91 % of control
T/C (endpoint: mean tumor weight (est.), dose: 75.0 mg/kg/injection, schedule: Q01DX011 (ip), vehicle: saline with Tween-80, higher = larger tumour): 53 % of control
T/C (endpoint: median survival time, dose: 18.75 mg/kg/injection, schedule: Q01DX011 (ip), vehicle: saline with Tween-80, higher = longer survival): 90 % of control
T/C (endpoint: median survival time, dose: 37.5 mg/kg/injection, schedule: Q01DX011 (ip), vehicle: saline with Tween-80, higher = longer survival): 94 % of control
T/C (endpoint: median survival time, dose: 75.0 mg/kg/injection, schedule: Q01DX011 (ip), vehicle: saline with Tween-80, higher = longer survival): 102 % of control

OC(C1CO1)C(O)C1CO1 (configuration not stated)
T/C [12]: 110 % of control
T/C [13]: 108 % of control
T/C (endpoint: median survival time, dose: 3.0 mg/kg/injection, schedule: Q01DX011 (ip), vehicle: saline, higher = longer survival): 114 % of control
